Data on 19 molecules can be found in patent publication EP4800015A1, “AZABICYCLO DERIVATIVE AND PREPARATION METHOD THEREFOR, AND USE” (Zhejiang Hisun Pharmaceutical Co., Ltd., priority 2023, dated 2025).

Some results are limits rather than exact numbers.

The first assay deals with T1, recombinant human WRN (Homo sapiens, UniProt Q14191).
T1 construct: purchased BPS 101264
T1 sequence (Q14191 whole entry): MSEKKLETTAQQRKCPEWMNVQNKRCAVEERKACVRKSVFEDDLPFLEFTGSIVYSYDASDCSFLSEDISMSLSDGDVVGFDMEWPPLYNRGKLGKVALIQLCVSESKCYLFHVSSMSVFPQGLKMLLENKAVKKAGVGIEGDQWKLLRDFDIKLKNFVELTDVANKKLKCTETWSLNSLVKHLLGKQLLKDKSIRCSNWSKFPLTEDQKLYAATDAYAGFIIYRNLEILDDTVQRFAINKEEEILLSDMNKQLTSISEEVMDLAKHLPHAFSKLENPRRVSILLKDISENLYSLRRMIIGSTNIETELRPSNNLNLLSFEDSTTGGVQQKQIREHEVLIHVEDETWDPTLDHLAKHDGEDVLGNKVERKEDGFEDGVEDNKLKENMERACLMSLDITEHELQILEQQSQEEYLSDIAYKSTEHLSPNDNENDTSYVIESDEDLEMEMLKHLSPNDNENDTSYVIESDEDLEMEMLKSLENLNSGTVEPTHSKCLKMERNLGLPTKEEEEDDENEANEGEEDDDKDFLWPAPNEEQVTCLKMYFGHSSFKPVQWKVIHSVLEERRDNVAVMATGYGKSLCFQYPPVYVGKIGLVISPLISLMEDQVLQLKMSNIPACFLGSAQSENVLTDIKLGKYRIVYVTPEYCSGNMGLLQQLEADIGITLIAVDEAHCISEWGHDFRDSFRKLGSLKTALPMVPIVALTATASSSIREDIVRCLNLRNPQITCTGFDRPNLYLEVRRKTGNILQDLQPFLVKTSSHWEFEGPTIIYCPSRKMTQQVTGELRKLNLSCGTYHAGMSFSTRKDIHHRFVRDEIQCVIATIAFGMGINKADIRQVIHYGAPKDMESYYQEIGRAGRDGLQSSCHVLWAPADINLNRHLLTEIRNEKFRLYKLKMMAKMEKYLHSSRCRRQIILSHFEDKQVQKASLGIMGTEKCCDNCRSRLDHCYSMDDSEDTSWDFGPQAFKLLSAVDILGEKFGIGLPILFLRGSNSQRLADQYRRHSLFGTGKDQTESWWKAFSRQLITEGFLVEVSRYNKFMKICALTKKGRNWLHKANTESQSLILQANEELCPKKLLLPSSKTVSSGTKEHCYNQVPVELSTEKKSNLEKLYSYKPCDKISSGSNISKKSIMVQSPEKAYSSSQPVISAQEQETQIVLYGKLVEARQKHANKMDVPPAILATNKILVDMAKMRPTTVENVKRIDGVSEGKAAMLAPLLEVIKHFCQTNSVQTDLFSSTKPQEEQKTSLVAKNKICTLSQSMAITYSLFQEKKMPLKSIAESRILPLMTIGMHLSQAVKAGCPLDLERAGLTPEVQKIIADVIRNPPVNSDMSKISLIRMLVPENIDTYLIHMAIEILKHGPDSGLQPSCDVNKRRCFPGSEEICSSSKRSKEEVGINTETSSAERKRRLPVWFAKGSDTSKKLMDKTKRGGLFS
In words: Inhibition of WRN enzyme activity (ATPase), ADP-Glo Kinase Assay. Format: biochemical. The settings on record: WRN protein 5 nM, Flap 0.1 nM, ATP 30 µM. The procedure, abridged: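 ATPase activity was measured by ADP-Glo luminescence after a 10-min room-temperature reaction with 30 µM ATP and 0.1 nM Flap26 oligonucleotide substrate. The 5 nM WRN had first been exposed to compound (0.004–1000 nM) for 15 min in pH 7.5 Tris buffer with 2 mM MgCl2. IC50 values came from log-concentration regression against the DMSO control.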
In general terms: ADP-Glo first removes unused ATP, then detects ADP through luciferase.
The term IC50 denotes the concentration at which inhibition is half-maximal. `CCc1c(N2CCN(C(=O)c3ncccc3O)CC2)c(=O)n2nc(C3=CC4COCC4C3)nc2n1CC(=O)Nc1ccc(S(F)(F)(F)(F)F)cc1` (stereo not shown) [Example 187, 2-(5-ethyl-6-(4-(3-hydroxypicolinoyl)piperazin-1-yl)-7-oxo-2-(3,3a,4,6a-tetrahydro-1H-cyclopenta[c]furan-5-yl)-[1,2,4]triazolo[1,5-a]pyrimidin-4(7H)-yl)-N-(4-(pentafluoro-λ^6-sulfaneyl)phenyl) acetamide]: the IC50 was 1 to 100 nM.

The assay is the same for the next values; noted with them: WRN protein 5 nM, Flap 0.1 nM, ATP 30 µM; read-out: IC50.
Consider `CCc1c(N2CCN(C(=O)c3ncnc(C)c3O)CC2)c(=O)n2nc(-c3ccc4c(c3)CC(=O)N4)nc2n1CC(=O)Nc1ccc(C(F)(F)F)cc1Cl` [Example 141, N-(2-chloro-4-(trifluoromethyl)phenyl)-2-(5-ethyl-6-(4-(5-hydroxy-6-methylpyrimidine-4-carbonyl)piperazin-1-yl)-7-oxo-2-(2-oxoindolin-5-yl)-[1,2,4]triazolo[1,5-a]pyrimidin-4(7H)-yl)acetamide], for which the IC50 lay within 1 to 100 nM.

With `CCc1c(N2CCN(C(=O)c3ncnc(C)c3O)CC2)c(=O)n2nc(C3=CC4(CCNCC4)C3)nc2n1CC(=O)Nc1ccc(C(F)(F)F)cc1Cl` [Example 143, N-(2-chloro-4-(trifluoromethyl)phenyl)-2-(5-ethyl-6-(4-(5-hydroxy-6-methylpyrimidine-4-carbonyl)piperazin-1-yl)-7-oxo-2-(7-azaspiro[3.5]non-1-en-2-yl)-[1,2,4]triazolo[1,5-a]pyrimidin-4(7H)-yl)acetamide], the IC50 is 1 to 100 nM.

For `CCc1c(N2CCN(C(=O)c3ncnc(C)c3O)CC2)c(=O)n2nc(C3=CC4CN(C)CC4C3)nc2n1CC(=O)Nc1ccc(C(F)(F)F)cc1Cl` (stereo not shown) [Example 144, N-(2-chloro-4-(trifluoromethyl)phenyl)-2-(5-ethyl-6-(4-(5-hydroxy-6-methylpyrimidine-4-carbonyl)piperazin-1-yl)-2-(2-methyl-1,2,3,3a,4,6a-hexahydrocyclopenta[c]pyrrol-5-yl)-7-oxo-[1,2,4]triazolo[1,5-a]pyrimidin-4(7H)-yl)acetamide], the concentration for half-maximal inhibition (IC50) lay within 1 to 100 nM.

In the case of `CCc1c(N2CCN(C(=O)c3ncnc(C)c3O)CC2)c(=O)n2nc(C3=CC4CN(C(C)=O)CC4C3)nc2n1CC(=O)Nc1ccc(C(F)(F)F)cc1Cl` (stereo not shown) [Example 145, 2-(2-(2-Acetyl-1,2,3,3a,4,6a-hexahydrocyclopenta[c]pyrrol-5-yl)-5-ethyl-6-(4-(5-hydroxy-6-methylpyrimidine-4-carbonyl)piperazin-1-yl)-7-oxo-[1,2,4]triazolo[1,5-a]pyrimidin-4(7H)-yl)-N-(2-chloro-4-(trifluoromethyl)phenyl)acetamide], the IC50 is 1 to 100 nM.

In the case of `CCc1c(N2CCN(C(=O)c3ncnc(C)c3O)CC2)c(=O)n2nc(C3=CC4CNCC4C3)nc2n1CC(=O)Nc1ccc(S(F)(F)(F)(F)F)cc1` (stereo not shown) [Example 146, 2-(5-Ethyl-2-(1,2,3,3a,4,6a-hexahydrocyclopenta[c]pyrrol-5-yl)-6-(4-(5-hydroxy-6-methylpyrimidine-4-carbonyl)piperazin-1-yl)-7-oxo-[1,2,4]triazolo[1,5-a]pyrimidin-4(7H)-yl)-N-(4-(pentafluoro-λ^6-sulfaneyl)phenyl)acetamide], the IC50 is 1 to 100 nM.

For the molecule `CCc1c(N2CCN(C(=O)c3ncnc(C)c3O)CC2)c(=O)n2nc(-c3ccc4c(c3)CCO4)nc2n1CC(=O)Nc1ccc(SC(F)F)cc1Cl` [Example 148, N-(2-chloro-4-((difluoromethyl)thio)phenyl)-2-(2-(2,3-dihydrobenzofuran-5-yl)-5-ethyl-6-(4-(5-hydroxy-6-methylpyrimidine-4-carbonyl)piperazin-1-yl)-7-oxo-[1,2,4]triazolo[1,5-a]pyrimidin-4(7 H)-yl)acetamide], the IC50 was in the range of 1 to 100 nM.

Turning to `CCc1c(N2CCN(C(=O)c3ncncc3O)CC2)c(=O)n2nc(C3=CC4COCC4C3)nc2n1CC(=O)Nc1ccc(C(F)(F)F)cc1Cl` (stereo not shown) [Example 160, N-(2-chloro-4-(trifluoromethyl)phenyl)-2-(5-ethyl-6-(4-(5-hydroxypyrimidine-4-carbonyl)piperazin-1-yl)-7-oxo-2-(3,3a,4,6a-tetrahydro-1H-cyclopenta[c]furan-5-yl)-[1,2,4]triazolo[1,5-a]pyrimidin-4(7H)-yl)acetamide], the IC50 is 1 to 100 nM.

`CCc1c(N2CCN(C(=O)c3ncnc(C)c3O)CC2)c(=O)n2nc(C3=CCCCOC3)nc2n1CC(=O)Nc1ccc(SC(F)(F)F)cc1Cl` [Example 165, N-(2-chloro-4-((trifluoromethyl)thio)phenyl)-2-(5-ethyl-6-(4-(5-hydroxy-6-methylpyrimidine-4-carbonyl)piperazin-1-yl)-7-oxo-2-(2,5,6,7-tetrahydrooxepin-3-yl)-[1,2,4]triazolo[1,5-a]pyrimidin-4(7H)-yl)acetamide]: the IC50 was in the range of 1 to 100 nM.

In the case of `[2H]C([2H])([2H])Sc1ccc(NC(=O)Cn2c(CC)c(N3CCN(C(=O)c4ncnc(C)c4O)CC3)c(=O)n3nc(C4=CCCCOC4)nc23)c(Cl)c1` [Example 166, N-(2-chloro-4-((methyl-d3)thio)phenyl)-2-(5-ethyl-6-(4-(5-hydroxy-6-methylpyrimidine-4-carbonyl)piperazin-1-yl)-7-oxo-2-(2,5,6,7-tetrahydrooxepin-3-yl)-[1,2,4]triazolo[1,5-a]pyrimidin-4(7H )-yl)acetamide], the IC50 lay in the range of 1 to 100 nM.

Regarding `CCc1c(N2CCN(C(=O)c3ncnc(C)c3O)CC2)c(=O)n2nc(-c3ccc4c(c3)CCO4)nc2n1CC(=O)Nc1cc2ccsc2cc1C` [Example 168, 2-(2-(2,3-dihydrobenzofuran-5-yl)-5-ethyl-6-(4-(5-hydroxy-6-methylpyrimidine-4-carbonyl)piperazin-1-yl)-7-oxo-[1,2,4]triazolo[1,5-a]pyrimidin-4(7H)-yl)-N-(6-methylbenzo[b]thiophen-5-yl)ac etamide], the IC50 lay within 1 to 100 nM.

As for `CCc1c(N2CCN(C(=O)c3ncnc(C)c3O)CC2)c(=O)n2nc(-c3ccc4nc(N5CCOCC5)sc4c3)nc2n1CC(=O)Nc1ccc(C(F)(F)F)cc1Cl` [Example 171, N-(2-chloro-4-(trifluoromethyl)phenyl)-2-(5-ethyl-6-(4-(5-hydroxy-6-methylpyrimidine-4-carbonyl)piperazin-1-yl)-2-(2-morpholinobenzo[d]thiazol-6-yl)-7-oxo-[1,2,4]triazolo[1,5-a]pyrimidin-4(7H)-yl)acetamide], the IC50 lay within 1 to 100 nM.

As for `CCc1c(N2CCN(C(=O)c3ncnc(C)c3O)CC2)c(=O)n2nc(C#CC3CC3)nc2n1CC(=O)Nc1ccc(C(F)(F)F)cc1Cl` [Example 173, N-(2-chloro-4-(trifluoromethyl)phenyl)-2-(2-(cyclopropylethynyl)-5-ethyl-6-(4-(5-hydroxy-6-methylpyrimidine-4-carbonyl)piperazin-1-yl)-7-oxo-[1,2,4]triazolo[1,5-a]pyrimidin-4(7H)-yl)acetamide], the IC50 was in the range of 1 to 100 nM.

Take `CCc1c(N2CCN(C(=O)c3ncnc(C)c3O)CC2)c(=O)n2nc(C3=CC4CC4C3)nc2n1CC(=O)Nc1ccc(SC(F)(F)F)cc1` (stereo not shown) [Example 177, 2-(2-(bicyclo[3.1.0]hex-2-en-3-yl)-5-ethyl-6-(4-(5-hydroxy-6-methylpyrimidine-4-carbonyl)piperazin-1-yl)-7-oxo-[1,2,4]triazolo[1,5-a]pyrimidin-4(7H)-yl)-N-(4-((trifluoromethyl)thio)phenyl)ac etamide]: the IC50 lay within 1 to 100 nM.

On to `CCc1c(N2CCN(C(=O)c3ncnc(C)c3O)CC2)c(=O)n2nc(-c3cc4c(s3)CCN(CC(F)(F)F)C4)nc2n1CC(=O)Nc1ccc(C(F)(F)F)cc1Cl` [Example 179, N-(2-chloro-4-(trifluoromethyl)phenyl)-2-(5-ethyl-6-(4-(5-hydroxy-6-methylpyrimidine-4-carbonyl)piperazin-1-yl)-7-oxo-2-(5-(2,2,2-trifluoroethyl)-4,5,6,7-tetrahydrothieno[3,2-c]pyridin-2-yl)-[1,2,4]triazolo[1,5-a]pyrimidin-4(7H)-yl)acetamide], for which the IC50 is less than 1 nM.

Turning to `CCc1c(N2CCN(C(=O)c3ncnc(C)c3O)CC2)c(=O)n2nc(-c3ccc4c(c3)CN(CC(F)(F)F)CCO4)nc2n1CC(=O)Nc1ccc(C(F)(F)F)cc1Cl` [Example 180, N-(2-chloro-4-(trifluoromethyl)phenyl)-2-(5-ethyl-6-(4-(5-hydroxy-6-methylpyrimidine-4-carbonyl)piperazin-1-yl)-7-oxo-2-(4-(2,2,2-trifluoroethyl)-2,3,4,5-tetrahydrobenzo[f][1,4]oxazepin-7-yl) -[1,2,4]triazolo[1,5-a]pyrimidin-4(7H)-yl)acetamide], the IC50 was in the range of 1 to 100 nM.

For `[2H]C([2H])([2H])Sc1ccc(NC(=O)Cn2c(CC)c(N3CCN(C(=O)c4ncnc(C)c4O)CC3)c(=O)n3nc(C4=CC5CC5C4)nc23)cc1` (stereo not shown) [Example 181, 2-(2-(Bicyclo[3.1.0]hex-2-en-3-yl)-5-ethyl-6-(4-(5-hydroxy-6-methylpyrimidine-4-carbonyl)piperazin-1-yl)-7-oxo-[1,2,4]triazolo[1,5-a]pyrimidin-4(7H)-yl)-N-(4-((methyl-d3)thio)phenyl)acetamide], the IC50 was 1 to 100 nM.

Turning to `CCc1c(N2CCN(C(=O)c3ncnc(C)c3O)CC2)c(=O)n2nc(/C=C/C(=O)N(C)C)nc2n1CC(=O)Nc1ccc(C(F)(F)F)cc1Cl` [Example 182, (E)-3-(4-(2-((2-chloro-4-(trifluoromethyl)phenyl)amino)-2-oxoethyl)-5-ethyl-6-(4-(5-hydroxy-6-methylpyrimidine-4-carbonyl)piperazin-1-yl)-7-oxo-4,7-dihydro-[1,2,4]triazolo[1,5-a]pyrimidin-2-yl)-N,N-dimethylacrylamide], the IC50 was in the range of 1 to 100 nM.

On to `CCc1c(N2CCN(C(=O)c3ncnc(C)c3O)CC2)c(=O)n2nc(C3=CC4COCC4C3)nc2n1CC(=O)Nc1ccc(S(F)(F)(F)(F)F)cc1` (stereo not shown) [Example 189, 2-(5-ethyl-6-(4-(5-hydroxy-6-methylpyrimidine-4-carbonyl)piperazin-1-yl)-7-oxo-2-(3,3a,4,6a-tetrahydro-1H-cyclopenta[c]furan-5-yl)-[1,2,4]triazolo[1,5-a]pyrimidin-4(7H)-yl)-N-(4-(pentafluor o-λ^6-sulfaneyl)phenyl)acetamide], for which the IC50 was in the range of 1 to 100 nM.
